Consider 1 molecule from patent US20160228434A1, “TREATMENT OF DISEASES CAUSED BY ABNORMAL LYMPHOCYTE FUNCTION WITH AN HDAC6 INHIBITOR” (priority 2013, published 2016).

This assay has as its system thymic T cells. Kind of assay: Thymic T cell development by flow cytometry in treated NZB/W mice. Format: in vivo. Particulars: 16 weeks of treatment. The method, then:
NZB/W mice were injected intraperitoneally 5 days/week with the vehicle control (DMSO), ACY-738 treatment at 5 mg/kg (low-dose), or ACY-738 treatment at 20 mg/kg (high-dose) beginning at 22-weeks-of-age until euthanization at 38 weeks-of-age. ACY-738 was received from Acetylon Pharmaceuticals for use in all studies. Proteinuria and weight were measured every 2 weeks and blood was collected every four weeks for sera analysis. Proteinuria was measured by a standard semi-quantitative test using Siemens Uristix dipsticks (Siemens Healthcare, Deerfield, Ill., USA). Results were quantified according to the manufacturer's instructions and scored as follows: dipstick reading of 0 mg/dL=0, trace=1, 30-100 mg/dL=2, 100-300 mg/dL=3, 300-2000 mg/dL=4, and 2000+ mg/dL=5.
A single-cell suspension was obtained from the thymuses and spleens of treated NZB/W mice at 38 weeks-of-age. Briefly, the thymus was removed from each NZB/W mouse and dissociated across a sterile wire mesh in a petri dish containing ice-cold RPMI 1640 medium (Thermo Scientific). RBCs were lysed using RBC lysis buffer and cells were pelleted and washed with PBS. Splenocytes were stained with APC-conjugated CD3, FITC-conjugated CD4, eFluor450 (eF450)-conjugated CD8a, PerCP-CY5.5-conjugated CD25, and PE-conjugated Foxp3. Thymocytes were stained with APC-CD3, FITC-CD4, and PE-CD8 anti-mouse mAbs (eBioscience, San Diego, Calif., USA). Fluorescence was measured using a FACScan flow cytometer and data was analyzed by FlowJo software.
FIG. 4A depicts representative flow cytometry images of thymocytes gated on CD3 and labeled with CD4 and CD8.
(In general: Flow cytometry measures light scatter and fluorescence of single cells or particles in a stream.)

Structures are written as SMILES. “Also recorded” adds a separate entry of the source.

On to `O=C(NO)c1cnc(NC2(c3ccccc3)CC2)nc1` [ACY-738], for which, for the setting “NZB/W mice at 38 weeks-of-age, 5 and 20 mg/kg”, the “percentage of DN (CD3+CD4-CD8-) thymic T cells” value was “decreased the percentage of DN T cells in a dose-dependent manner; also recorded: reduced”. For the same molecule, for the setting “NZB/W mice at 38 weeks-of-age”, the “percentage of CD3+CD4+CD8- single positive thymic T cells” value was “substantial decrease” and the “percentage of CD3+CD4-CD8+ single positive thymic T cells” value was “substantial decrease”. For the same molecule, the “double positive (CD3+CD4+CD8+) thymic T cell numbers” value (NZB/W mice, 5 and 20 mg/kg) is recorded as “increased in a dose-dependent manner”.
